Values after ≈ are worked out from the molar mass of the structure shown. Ends that are not written are not given here.
Tested on: E. coli ATCC 25922
Assay type: cell-based, Escherichia coli
Experimental: The minimum inhibitory concentration (MIC) of Tritrp1 and its Trp-substituted analogs against E. coli ATCC 25922 was measured by the standard broth microdilution method. Bacteria (5 × 10^5 CFU/mL) were incubated overnight at 37 °C in Mueller-Hinton broth (MHB) and in the presence of peptides diluted in a two-fold concentration series ranging from 0.25–128 µM in a 96-well polypropylene plate. The reported MIC values correspond to the minimum peptide concentration where bacterial growth was not observed. After overnight incubation, 10 µL from the first three wells without bacterial growth for each peptide in the MIC plate were diluted 1:10^6 in MHB, and 100 µL of this dilution was plated in MHB-agar. After incubation overnight at 37 °C, the minimum bactericidal concentration (MBC) was reported as the minimum peptide concentration where no colony formation was detected.

| Molecule | MBC [µM] | MIC [µM] |
| --- | --- | --- |
| VRRFPWAWPFLRR-NH2 [Peptide W7A] | 16 | 16 |
| VRRFPYWWPFLRR-NH2 [Peptide W6Y] | 16 | 16 |
| CC(C)C[C@H](NC(=O)[C@H](Cc1ccccc1)NC(=O)[C@@H]1CCCN1C(=O)[C@H](Cc1c[nH]c2ccccc12)NC(=O)[C@H](Cc1c[nH]c2ccccc12)NC(=O)[C@H](Cc1c[nH]c2ccccc12)NC(=O)[C@@H]1CCCN1C(=O)[C@H](Cc1ccccc1)NC(=O)[C@H](CCCNC(=N)N)NC(=O)[C@H](CCCNC(=N)N)NC(=O)[C@@H](N)C(C)C)C(=O)N[C@@H](CCCNC(=N)N)C(=O)N[C@@H](CCCNC(=N)N)C(N)=O [Tritrp1, reference compound] | 4 (≈ 7.61 µg/mL) | 4 (≈ 7.61 µg/mL) |
| VRRFPAWWPFLRR-NH2 [Peptide W6A] | 32 to 64 | 32 to 64 |
| VRRFPYWYPFLRR-NH2 [Peptide W68Y] | 16 | 16 |
| VRRFPWWYPFLRR-NH2 [Peptide W8Y] | 4 | 4 |
| VRRFPAWAPFLRR-NH2 [Peptide W68A] | 64 to 128 | 64 to 128 |
| VRRFPWAAPFLRR-NH2 [Peptide W78A] | 64 to 128 | 64 to 128 |
| VRRFPWWAPFLRR-NH2 [Peptide W8A] | 8 | 8 |
| VRRFPWYYPFLRR-NH2 [Peptide W78Y] | 16 | 16 |
| VRRFPAAAPFLRR-NH2 [A-Tritrp] | >128 | >128 |
| VRRFPYYYPFLRR-NH2 [Y-Tritrp] | 16 to 32 | – |
| VRRFPYYWPFLRR-NH2 [Peptide W67Y] | 32 | 32 |
| VRRFPAAWPFLRR-NH2 [Peptide W67A] | 64 to 128 | 64 to 128 |
| VRRFPWYWPFLRR-NH2 [Peptide W7Y] | 8 | 8 |

Reference: paper PMC4790384, “Position-Dependent Influence of the Three Trp Residues on the Membrane Activity of the Antimicrobial Peptide, Tritrpticin” (Antibiotics, 2014)
